This is an account of results in US20150057349A1 (NESTEC S.A., priority 2012, published 2015).

In one data set the test system is Nrf2. The experiment in a line: Nrf2 reporter assay (ARE-luciferase) in AREc32 cells. In kind it is cell-based. The following applies: 24 hours. On the technique in general: In a reporter assay the amount or activity of a reporter protein is the signal.
A further data set relates to AREc32 cells. The experiment in a line: Cell viability of AREc32 cells (ATP quantification, Cell Titer-Glo). To be noted: 24 hours. The format is cell-based. The protocol: To determine the Nrf2 activation the samples were tested on AREc32 cells (seeded in 96 well plates) using 10 independent dilutions (½, ¼, ⅙, 1/10, 1/15, 1/20, 1/25, 1/30, 1/40 and 1/50) and incubated for 24 hours at 37° C. in a 5% CO2/air incubator. The luciferase activity and the cell viability (ATP measurements) were determined using the Luciferase and Cell Titer-Glo kits from Promega.
The cell viability was also measured using a cell Titer-Glo kit (ATP quantification).

Data set [1] has as its system NF-κB. The experiment in a line: NF-κB activity (SEAP and IL-8 production) in HT-29 clone 34 cells. In kind it is cell-based, human. As for the experimental part: The human colonic adenocarcinoma HT-29 clone 34 cell line (passage 42-50) are adherent cells stably transfected with a NF-κB/SEAP reporter plasmid. They were cultured in DMEM high glucose (4.5 g/L) (Invitrogen) containing 1% of stable L-glutamine and supplemented with 10% of heat inactivated (one hour at 56° C.) Foetal Calf Serum (FCS) (Bioconcept, Allschwil, Switzerland), 1% of Penicillin/Streptomycin (Sigma) and 500 μg/ml of Geneticin (PAA, Pasching, Austria) at 37° C. in a 5% CO2/air incubator. Culture medium was renewed every two days until the cell monolayer reached ˜90% confluence. Cells were sub-cultured using 1× Trypsin/EDTA (Sigma).
(§1) 10000 cells/well were seeded in 200 μl of culture medium in flat bottom white border 96 well plates (Greiner Bio One, Kremsmuenster, Austria). […] 20 μl of experimental medium containing (or not) LPS 055:B5 or rhTNF-α (100 and 10 ng/ml final, respectively) was added and the plates were incubated for 24 hours at 37° C. in a 5% CO2/air incubator.
Cell culture supernatants were then collected for measurement of NF-κB activity (determination of secreted alkaline phosphatase and IL-8 production) using Phosphalight (Applied Biosystems) and IL-8 singleplex (Meso Scale, Gaithersburg, Md.) kits, respectively.

For a further data set, the system named is HT-29 clone 34 cells. The experiment in a line: Cell viability of HT-29 clone 34 cells (ATP, Cell Titer-Glo). The format is cell-based, human. The following applies: ATP measurement. The protocol:
as §1
Cell viability was determined by measuring ATP using a Cell Titer-Glo kit (Promega). Briefly, remaining adherent HT-29 clone 34 cells were incubated for 10 min at room temperature under horizontal shaking (250 rpm) with 120 μl of Cell Titer-Glo reagent (pre-diluted twice in 1×PBS) and the luminescence was measured using Polarstar microplate reader (BMG, Offenburg, Germany) for 1000 ms with a gain value set to 3500.
(In general: Cellular ATP, detected with luciferase, serves as a proxy for viable cell number.)

For data set [2], the system named is NF-κB. The experiment in a line: NF-κB activity (secreted alkaline phosphatase) in THP-1 blue cells. The format is cell-based, human. To be noted: THP-1 blue cells stimulated with LPS. The protocol: Human monocytes/macrophages THP-1 blue cells (passage 16-20) (Invivogen, Toulouse, France) were cultured in modified RPMI medium (ATCC, Manassas, Va.) containing 1 mM of sodium pyruvate, 2 mM of L-glutamine, 4.5 g/L of glucose and 10 mM of HEPES supplemented with 10% of heat inactivated FCS (Bioconcept), 1% of Penicillin/Streptomycin (Sigma) and 500 μg/ml of Zeocin (Invivogen) at 37° C. in a 5% CO2/air incubator. 200000 cells/well were seeded in 100 μl of culture medium in 96 well flat bottom transparent plates. […] 20 μl of culture media containing (or not) LPS 055:B5 (Sigma) (100 ng/ml final) was added and the plates were incubated for 16 hours at 37° C. in a 5% CO2/air incubator. Cell culture supernatants were carefully transferred to 96 well-plates for NF-κB activity measurement which is proportional to the level of secreted alkaline phosphatase. Briefly, 100 μl of supernatants were mixed with 150 μl of QuantiBlue (Invivogen) in a 96 well-plates incubated for 3 h at 37° C. before OD measurements at 620 nm with Sunrise microplate reader (Tecan, Mannedorf, Switzerland). Cell viability was determined using Cell Titer-Glo kit as described above.

In the next data set the test system is THP-1 blue cells. The experiment in a line: Cell viability of THP-1 blue cells (Cell Titer-Glo). The format is cell-based, human. As for the experimental part: 200000 cells/well were seeded in 100 μl of culture medium in 96 well flat bottom transparent plates. […] 20 μl of culture media containing (or not) LPS 055:B5 (Sigma) (100 ng/ml final) was added and the plates were incubated for 16 hours at 37° C. in a 5% CO2/air incubator.
Cell culture supernatants were carefully transferred to 96 well-plates for NF-κB activity measurement which is proportional to the level of secreted alkaline phosphatase. Briefly, 100 μl of supernatants were mixed with 150 μl of QuantiBlue (Invivogen) in a 96 well-plates incubated for 3 h at 37° C. before OD measurements at 620 nm with Sunrise microplate reader (Tecan, Mannedorf, Switzerland). Cell viability was determined using Cell Titer-Glo kit as described above.

The mark [3] stands for this setting: HT-29 clone 34 cells stimulated with LPS.

Method for Nrf2: Activation of Nrf2 was measured using an Nrf2 reporter assay. This assay is based on the AREc32 cell line, from CRX biosciences (Dundee, Scotland), a stably transfected MCF7 (breast adenocarcinoma) cell line that contains a luciferase gene construct under the control of the ARE. […] Anti-oxidative molecules such as Tert-butylhydroquinone (TBHQ) induce luciferase transcription via the activation of Nrf2 that binds to ARE. Luciferase activity is determined using a luciferase kit form Promega (Madison, Wis.). The luciferase activity is proportional to the activation of Nrf2. […] The luciferase activity and the cell viability (ATP measurements) were determined using the Luciferase and Cell Titer-Glo kits from Promega. For each run the luciferase activities, measured in Relative Light Units (RLU), of all the wells were normalized with the mean of the luciferase activity of the cells only of all the plates. […] For each sample the Nrf2 activation was calculated as follows: 1) The Nrf2 fold induction: The Nrf2 fold induction is very useful for screening purposes. […] The luciferase content per sample allows a semi quantification of the Nrf2 activation by reflecting the amount of the Nrf2 activating molecule. […] The cell viability was also measured using a cell Titer-Glo kit (ATP quantification).

With `CC(=O)/C=C/C(=O)O` [4-oxo-2-pentenoic acid], the “Nrf2 activation (in words)” value with Nrf2 was “strongly activate Nrf2 in a dose dependent manner”. In addition, the “Optimal dose of Nrf2 activation” value with Nrf2 (dose range 0 to 200 μM) was 40 to 50 µM. The “Doses at which viability of AREc32 cells was not affected” value in the data set with AREc32 cells was “lower than 70 μM”. Also, in the data set on NF-κB [1] (setting [3]), the “Dose giving the best inhibition of SEAP and IL-8 secretion” value stood at 50 µM; the “Inhibition of NF-κB activity (in words)” value is given as “inhibits NF-κB activity in a dose dependent manner”. In the data set on NF-κB [1] (HT-29 clone 34 cells, no LPS, doses tested 3 to 400 μM), the “NF-κB activity (SEAP or IL-8) in the absence of LPS” value is on record as “no NF-κB activity was observed”. In the data set with HT-29 clone 34 cells, the “Doses giving a decrease in cell viability of HT-29 clone 34 cells” value is > 50 µM. The “Doses giving strong NF-κB inhibition” value with NF-κB [2] is 40 to 75 µM. In the data set on THP-1 blue cells, the “Doses toxic to cells” value is reported as “higher than 75 μM”.
